The results in this text go back to patent US9872861B2, “Methods of treatment using selective Bcl-2 inhibitors” (AbbVie Inc., priority 2010, dated 2018).

One series concerns RS4;11 cells. The experiment in a line: Cellular efficacy in Bcl-2 dependent tumor cell line RS4;11. The series is classed as cell-based, human. Conditions: Homo sapiens, RS4-11; 10% HS.
Another series addresses T1, Bcl-w (Homo sapiens, UniProt Q92843).
T1 sequence (Q92843 1-193): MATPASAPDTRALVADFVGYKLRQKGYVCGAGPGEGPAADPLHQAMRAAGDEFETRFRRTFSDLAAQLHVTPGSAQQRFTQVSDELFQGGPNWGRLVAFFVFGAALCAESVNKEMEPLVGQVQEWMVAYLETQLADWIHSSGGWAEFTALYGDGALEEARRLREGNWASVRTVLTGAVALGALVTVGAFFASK
The experiment in a line: TR FRET competitive binding affinity, Bcl-w. Conditions: read-out: Target Affinity TR FRET, Bcl-w. How it is done: (§1) A comparison of the binding affinity for each of the compounds was performed to determine target affinity, as measured by Time-Resolved Fluorescence Resonance Energy Transfer (TR FRET).

A further series has as its system FL5.12-Bcl-2 cells. The experiment in a line: Cellular efficacy in FL5.12 cells dependent on Bcl-2. The series is classed as cell-based, murine. Conditions: Mus musculus, 3% FBS.
Series [1] deals with peripheral blood immune cells and platelets. Description: Peripheral blood lymphocytes and platelets in (NZB×NZW)F1 mice, Cell Dyn hematology analyzer. The series is classed as in vivo.
For the next series, the system named is H146 cells. Description: Cellular efficacy in Bcl-XL dependent tumor cell line H146. The series is classed as cell-based. To be noted: Homo sapiens, NCI-H146; 10% HS.
The subject of the next series is FL5.12-Bcl-XL cells. Description: Cellular efficacy in FL5.12 cells dependent on Bcl-XL. The series is classed as cell-based, murine. Conditions: Mus musculus, 3% FBS.
The target of a further series is Mcl-1 (Homo sapiens, UniProt Q07820). Description: TR FRET competitive binding affinity, Mcl-1. Conditions: read-out: Target Affinity TR FRET, Mcl-1. How it is done:
as §1
A general note: TR-FRET usually uses a lanthanide donor and a delayed reading to cut background.

Another series has as its target Bcl-XL (Homo sapiens, UniProt Q07817). Description: TR FRET competitive binding affinity, Bcl-XL. To be noted: read-out: Target Affinity TR FRET, Bcl-XL. How it is done: as §1
In series [2] the test system is peripheral blood immune cells. Description: Peripheral blood lymphocytes in C57BL/6 mice, Cell Dyn hematology analyzer. The series is classed as in vivo. Conditions: for inhibition in vivo at 100 mg/kg: Mus musculus, Lymphocyte. How it is done:
The effect of the Bcl-2 selective/Bcl-XL sparing compounds on peripheral blood immune cells was also evaluated in C57BL/6 mice. Mice were treated four days with individual compounds (100 mg/kg, orally every day) and cell numbers were measured with a Cell Dyn hematology analyzer.

For the next series, the target named is Bcl-2 (Homo sapiens, UniProt P10415). Description: TR FRET competitive binding affinity, Bcl-2. To be noted: read-out: Target Affinity TR FRET, Bcl-2. How it is done: as §1
Chain of Bcl-2 (P10415 whole entry): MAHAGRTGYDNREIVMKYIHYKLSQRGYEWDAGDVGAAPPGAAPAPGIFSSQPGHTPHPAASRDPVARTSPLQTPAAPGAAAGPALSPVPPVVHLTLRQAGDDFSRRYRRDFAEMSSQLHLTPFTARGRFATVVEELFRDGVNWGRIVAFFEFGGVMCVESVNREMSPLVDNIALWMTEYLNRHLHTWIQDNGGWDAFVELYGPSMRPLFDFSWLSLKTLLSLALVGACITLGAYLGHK
[3] abbreviates: (NZB×NZW)F1 mice, four days, orally every day.
The mark [4] stands for this setting: 24 h, 1 oral dose of 100 mg/kg, read-out: Day 1 % Reduction vs. Vehicle.
Setting [5] is: 96 h, 4 oral doses of 100 mg/kg, read-out: Day 4 % Reduction vs. Vehicle.
[6] abbreviates: 30 and 100 mg/kg intraperitoneal every day, four days.

Structures are written as SMILES. Read-outs that look alike come from different tables or passages of the source.

Chain of Bcl-XL (Q07817 whole entry): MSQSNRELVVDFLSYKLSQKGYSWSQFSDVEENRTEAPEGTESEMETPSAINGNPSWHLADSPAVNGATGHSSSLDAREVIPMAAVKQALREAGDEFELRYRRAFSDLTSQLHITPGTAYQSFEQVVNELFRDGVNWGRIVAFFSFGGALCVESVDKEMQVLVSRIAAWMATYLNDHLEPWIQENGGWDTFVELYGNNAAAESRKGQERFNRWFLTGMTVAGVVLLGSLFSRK
Chain of Mcl-1 (Q07820 whole entry): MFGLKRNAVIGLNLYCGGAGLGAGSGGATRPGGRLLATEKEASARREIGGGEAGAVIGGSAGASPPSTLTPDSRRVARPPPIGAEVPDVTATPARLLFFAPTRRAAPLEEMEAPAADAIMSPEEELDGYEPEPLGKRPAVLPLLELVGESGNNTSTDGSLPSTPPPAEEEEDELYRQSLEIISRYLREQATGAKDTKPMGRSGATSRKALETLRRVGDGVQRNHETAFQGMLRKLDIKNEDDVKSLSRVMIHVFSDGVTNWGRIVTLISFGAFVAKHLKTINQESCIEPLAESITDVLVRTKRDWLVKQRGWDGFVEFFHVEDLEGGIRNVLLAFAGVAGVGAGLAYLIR

`CC1(C)CCC(c2ccc(Cl)cc2)=C(CN2CCN(c3ccc(C(=O)NS(=O)(=O)c4ccc(N[C@H](CCN5CCOCC5)CSc5ccccc5)c(S(=O)(=O)C(F)(F)F)c4)cc3)CC2)C1` [Compound 2, N-(4-(4-((2-(4-chlorophenyl)-5,5-dimethyl-1-cyclohex-1-en-1-yl)methyl)piperazin-1-yl)benzoyl)-4-(((1R)-3-(morpholin-4-yl)-1-((phenylsulfanyl)methyl)propyl)amino)-3-((trifluoromethyl)sulfonyl)benzenesulfonamide, reference compound]: the EC50 amounted to 110 nM in the series on RS4;11 cells, 20 nM in the series with FL5.12-Bcl-2 cells, 75 nM with H146 cells and 13 nM in the series on FL5.12-Bcl-XL cells. Moreover, the Ki at Bcl-w came out at 7 nM. Besides, the “lymphocytes in peripheral blood” value in [1] (setting [3]) is reported as “decrease in lymphocytes”. In addition, in series [1] (setting [3]), the platelet counts entry is recorded as “significant decrease in platelet counts”.

`CC1(C)CCC(CN2CCN(c3ccc(C(=O)NS(=O)(=O)c4ccc(NCC5CCOCC5)c([N+](=O)[O-])c4)c(Oc4ccc5[nH]ccc5c4)c3)CC2)=C(c2ccc(Cl)cc2)C1` [Compound 3, 4-(4-{[2-(4-chlorophenyl)-4,4-dimethylcyclohex-1-en-1-yl]methyl}piperazin-1-yl)-2-(1H-indol-5-yloxy)-N-({3-nitro-4-[(tetrahydro-2H-pyran-4-ylmethyl)amino]phenyl}sulfonyl)benzamide]: the Ki at Mcl-1 was determined as 111 nM; on Bcl-XL it was 151 nM; at Bcl-2, 0.119 nM. Further, the half-maximal effective concentration (EC50) is 41 nM in the series with RS4;11 cells, 12 nM in the series on FL5.12-Bcl-2 cells, greater than 5000 nM in the series on H146 cells and 1060 nM in the series with FL5.12-Bcl-XL cells. Moreover, the “Day 1 Lymphocytes” value in series [2] (1 oral dose of 100 mg/kg) is 2.3 ×10^6. Further, the “Day 4 lymphocytes” value in [2] (4 oral doses of 100 mg/kg) is reported as 1.34 ×10^6. Also, the inhibition in vivo at 100 mg/kg in [2] (setting [4]) amounted to 63%; in series [2] (setting [5]), 79%. Also, the lymphocyte reduction in [1] (30 mg/kg intraperitoneal every day, four days) is 47%; in series [1] (100 mg/kg intraperitoneal every day, four days), 66%. The “CD4+ T cells, CD8+ T cells and CD19+ B cells” value in series [1] (100 mg/kg and 300 mg/kg) is “statistically significant decrease”. Moreover, the “lymphocytes vs phosal vehicle control” value in series [1] (setting [6]) is “dose dependent decrease in lymphocytes”. For the same compound, the platelet counts entry in [1] (setting [6]) was “without significantly affecting platelet counts”.

As to `CO[C@H]1CC[C@H](CNc2ccc(S(=O)(=O)NC(=O)c3ccc(N4CCN(CC5=C(c6ccc(Cl)cc6)CC(C)(C)CC5)CC4)cc3Oc3cnc4[nH]ccc4c3)cc2[N+](=O)[O-])CC1` [Compound 5, Trans-4-(4-{[2-(4-chlorophenyl)-4,4-dimethylcyclohex-1-en-1-yl]methyl}piperazin-1-yl)-N-[(4-{[(4-methoxycyclohexyl)methyl]amino}-3-nitrophenyl)sulfonyl]-2-(1H-pyrrolo[2,3-b]pyridin-5-yloxy)benzamide], the EC50 in the series with RS4;11 cells is 8 nM; in the series on FL5.12-Bcl-2 cells it was 1.2 nM; in the series on H146 cells it was greater than 5000 nM; in the series on FL5.12-Bcl-XL cells, 67 nM. For the same compound, the Ki at Bcl-XL is 126 nM; on Bcl-2 it was less than 0.01 nM. Further, the “Day 1 Lymphocytes” value in series [2] (1 oral dose of 100 mg/kg) was 0.98 ×10^6. For the same compound, the “Day 4 lymphocytes” value in series [2] (4 oral doses of 100 mg/kg) is 1.02 ×10^6. For the same compound, the inhibition in vivo at 100 mg/kg in series [2] (setting [4]) and in series [2] (setting [5]) was 84% in each case.

On to `CC1(C)CCC(CN2CCN(c3ccc(C(=O)NS(=O)(=O)c4cnc(OC[C@H]5CC[C@H](O)CC5)c(Cl)c4)c(Oc4cccc5[nH]ncc45)c3)CC2)=C(c2ccc(Cl)cc2)C1` [Compound 6, Trans-N-({5-chloro-6-[(4-hydroxycyclohexyl)methoxy]pyridin-3-yl}sulfonyl)-4-(4-{[2-(4-chlorophenyl)-4,4-dimethylcyclohex-1-en-1-yl]methyl}piperazin-1-yl)-2-(1H-indazol-4-yloxy)benzamide], for which the figures for the Ki on Mcl-1, at Bcl-XL and on Bcl-2 were greater than 224 nM, 27 nM and less than 0.01 nM, respectively. In addition, the EC50 in the series on RS4;11 cells was found to be 23 nM; in the series with H146 cells it was 3660 nM. For the same compound, the “Day 1 Lymphocytes” value in series [2] (1 oral dose of 100 mg/kg) is listed as 1.91 ×10^6. In series [2] (4 oral doses of 100 mg/kg), the “Day 4 lymphocytes” value is 0.98 ×10^6. In addition, the inhibition in vivo at 100 mg/kg came out at 69% in series [2] (setting [4]) and 85% in series [2] (setting [5]).

Take `CC1(C)CCC(CN2CCN(c3ccc(C(=O)NS(=O)(=O)c4ccc(NC[C@H]5CC[C@@](C)(O)CC5)c([N+](=O)[O-])c4)c(Oc4cnc5[nH]ccc5c4)c3)CC2)=C(c2ccc(Cl)cc2)C1` [Compound 8, 4-(4-{[2-(4-chlorophenyl)-4,4-dimethylcyclohex-1-en-1-yl]methyl}piperazin-1-yl)-N-[(4-{[(cis-4-hydroxy-4-methylcyclohexyl)methyl]amino}-3-nitrophenyl)sulfonyl]-2-(1H-pyrrolo[2,3-b]pyridin-5-yloxy)benzamide]: the Ki on Mcl-1 was greater than 440 nM; at Bcl-w it was 405 nM; at Bcl-XL, 16 nM. The figures for the concentration for a half-maximal effect (EC50) in the series with RS4;11 cells and in the series on H146 cells were 4 nM and 3340 nM, respectively. Also, the “Day 1 Lymphocytes” value in series [2] (1 oral dose of 100 mg/kg) was 0.92 ×10^6. In addition, the “Day 4 lymphocytes” value in series [2] (4 oral doses of 100 mg/kg) is reported as 1.02 ×10^6. Also, the inhibition in vivo at 100 mg/kg in [2] (setting [4]) came out at 85%; in series [2] (setting [5]), 84%.

Consider `CC1(C)CCC(CN2CCN(c3ccc(C(=O)NS(=O)(=O)c4ccc(NC[C@H]5CC[C@](C)(O)CC5)c([N+](=O)[O-])c4)c(Oc4cnc5[nH]ccc5c4)c3)CC2)=C(c2ccc(Cl)cc2)C1` [Compound 9, 4-(4-{[2-(4-chlorophenyl)-4,4-dimethylcyclohex-1-en-1-yl]methyl}piperazin-1-yl)-N-[(4-{[(trans-4-hydroxy-4-methylcyclohexyl)methyl]amino}-3-nitrophenyl)sulfonyl]-2-(1H-pyrrolo[2,3-b]pyridin-5-yloxy)benzamide], for which the Ki was greater than 440 nM at Mcl-1, 227 nM at Bcl-w and 16 nM at Bcl-XL. Also, the EC50 in the series on RS4;11 cells is 2.5 nM; in the series with H146 cells, 3760 nM. The “Day 1 Lymphocytes” value in series [2] (1 oral dose of 100 mg/kg) was 0.75 ×10^6. Also, in series [2] (4 oral doses of 100 mg/kg), the “Day 4 lymphocytes” value was 0.88 ×10^6. The inhibition in vivo at 100 mg/kg in series [2] (setting [4]) is 88%; in [2] (setting [5]), 86%.

For the compound `CC1(C)CCC(CN2CCN(c3ccc(C(=O)NS(=O)(=O)c4cnc(OCC5(F)CCOCC5)c(Cl)c4)c(Oc4cccc5[nH]ncc45)c3)CC2)=C(c2ccc(Cl)cc2)C1` [Compound 12, N-({5-chloro-6-[(4-fluorotetrahydro-2H-pyran-4-yl)methoxy]pyridin-3-yl}sulfonyl)-4-(4-{[2-(4-chlorophenyl)-4,4-dimethylcyclohex-1-en-1-yl]methyl}piperazin-1-yl)-2-(1H-indazol-4-yloxy)benzamide], the EC50 in the series on RS4;11 cells was 17 nM; with FL5.12-Bcl-2 cells, 2.3 nM; in the series with H146 cells it was 2750 nM; in the series with FL5.12-Bcl-XL cells, 59 nM. For the same compound, the Ki at Bcl-XL is 23 nM; at Bcl-2 it was less than 0.01 nM. Also, in [2] (1 oral dose of 100 mg/kg), the “Day 1 Lymphocytes” value is recorded as 1.44 ×10^6. Besides, the “Day 4 lymphocytes” value in [2] (4 oral doses of 100 mg/kg) was 2.21 ×10^6. In addition, the inhibition in vivo at 100 mg/kg in [2] (setting [4]) came to 78%; in [2] (setting [5]) it was 74%.

As usually defined, the EC50 is the concentration giving half of the maximal effect. Low readings indicate higher potency in that assay, high ones lower potency in that assay.
